Test results from publication PMC11878239, “Biochemical investigations using mass spectrometry to monitor JMJD6-catalysed hydroxylation of multi-lysine containing bromodomain-derived substrates” (RSC Chemical Biology, 2025).
Entries after “also recorded” stand apart in the source; their conditions may differ.

Experiments:
[1] = retention on SPE cartridges; assay type: physicochemical; details: C4 SPE cartridge
Source text: (§1) The JMJD6-catalysed hydroxylation of the BRD-derived substrate peptide was monitored at ambient temperature by SPE-MS using a RapidFire RF 365 high-throughput sampling robot (Agilent) attached to an iFunnel Agilent 6550 accurate mass quadrupole time-of-flight (Q-TOF) mass spectrometer, which was operated in the positive ionization mode. Assay samples were aspirated under vacuum for 0.4 s, then loaded onto a C4 solid phase extraction (SPE) cartridge. After loading, the C4 SPE cartridge was washed with 0.1%v/v aqueous formic acid to remove non-volatile buffer salts (5 s, 1.5 mL min^−1). The peptide was eluted from the SPE cartridge with 0.1%v/v aqueous formic acid in 75/25v/v acetonitrile/water into the mass spectrometer (5 s, 1.6 mL min^−1) and the SPE cartridge re-equilibrated with 0.1%v/v aqueous formic acid (1 s, 1.25 mL min^−1).

full-length His6-JMJD6 [2] = target: T1, full-length His6-JMJD6 (Homo sapiens, UniProt Q6NYC1); assay: SPE-MS time-course of JMJD6-catalysed hydroxylation of BRD-derived peptides; assay type: biochemical; details: 0.05 μM JMJD6, 2 μM peptide, 2OG 200 μM, FAS 2 μM, LAA 100 μM, Tris 50 mM pH 7.5
T1 construct: An enzyme mixture (10 μL) containing full-length His6-JMJD6 (5 μM; final concentration: 0.05 μM); made in house; host or cells: Escherichia coli BL21 (DE3), pET-28a(+) plasmid
Procedure: Fig. 2 JMJD6-catalysed hydroxylation of homologous 40 mer peptides derived from bromodomain-containing proteins BRD2, BRD3, and BRD4. (a)–(c) Red MS spectra: JMJD6-catalysed hydroxylation after 10 min of (a) BRD2_520–559, (b) BRD3_463–502, and (c) BRD4_511–550. Black MS spectra: no enzyme controls. (d)–(f) JMJD6-catalysed hydroxylation of (d) BRD2_520–559, (e) BRD3_463–502, and (f) BRD4_511–550 showing the relative abundance of the non-hydroxylated substrate (orange circles), mono-hydroxylated product (green squares), di-hydroxylated product (purple triangles) and tri-hydroxylated product (light blue diamonds) over time. Data are means of three independent runs (n = 3; means ± SD).
as §1
Peaks corresponding to the m/z +5 charge states of the BRD-derived substrate peptide and the hydroxylated product peptides were extracted from the ion chromatogram and integrated using RapidFire Integrator 4.3.0 (Agilent). Peak area data were exported into Microsoft Excel and used to calculate the relative abundance of the mono-hydroxylated product peptide using the following equation:
% of mono-hydroxylated product peptide = 100 × (integral of mono-hydroxylated product peptide)/(integral of non-hydroxylated substrate peptide + sum of integrals of all hydroxylated product peptides). Note that for the time-period used to calculate initial reaction velocities, negligible amounts of multi-hydroxylated product peptide were observed (<5%); therefore, the sum of integrals of all hydroxylated product peptides ≈ the integral of the mono-hydroxylated product peptide.

full-length His6-JMJD6 [3] = target: T1, full-length His6-JMJD6; assay: SPE-MS kinetics of JMJD6 for O2; assay type: biochemical
Procedure: Recombinant human JMJD6 (full length with a N-terminal His6-tag) was produced in Escherichia coli BL21 (DE3) cells using a pET-28a(+) plasmid and purified by standard Ni(II)-affinity size-exclusion chromatography, as previously reported.[40] […] Purified JMJD6 was stored at −78 °C; fresh aliquots were used for all JMJD6 assays.
Assays to determine the kinetic parameters of JMJD6 for O2 were performed in 2 mL gas-tight glass vials (Sigma-Aldrich) in independent triplicates. 50 mM Tris buffer (pH 7.5; 0.95 mL) was incubated in a 2 mL gas-tight glass vial at 37 °C for 30 min with a fixed O2 concentration (in N2; specified in Fig S9, ESI ^†), adjusted using a mass flow controller. […] The JMJD6-catalysed reaction was performed at 37 °C at a fixed O2 concentration and was stopped after the reaction time specified (Fig. S9, ESI ^†) by the addition of 20%v/v aqueous formic acid (100 μL) and analysed by SPE-MS. The %-concentration of O2 in N2, adjusted with a mass flow controller, was converted into an O2 concentration [μM] by calibration using a standard (i.e., y[μM] = 9.026·x[%]).[100] Data were analysed by SPE-MS as described above to calculate apparent JMJD6 kinetic parameters for O2.

full-length His6-JMJD6 [4] = target: T1, full-length His6-JMJD6; assay: LC-MS of JMJD6-catalysed hydroxylation under 18O2 or in 18OH2; assay type: biochemical; details: 2OG 2 mM, FAS 20 μM, LAA 1 mM, peptide 50 μM, Tris pH 7.5, 24 h, room temperature
Procedure: […] The assay solutions were transferred to a custom-made air-tight container, which was then sealed and removed from the anaerobic chamber. […] The container was evacuated and then filled with […] to a pressure of ∼700 mbar. […] The enzyme reactions were incubated for 24 h at room temperature, after which time the container was returned to the anaerobic chamber. The reactions were stopped by the addition of 10%v/v aqueous formic acid (20 μL) and analysed by LC–MS using an Agilent 1290 infinity II LC system comprising a 1290 infinity II multi-sampler and a 1290 infinity II high speed pump connected to an Agilent 6550 accurate mass iFunnel quadrupole time-of-flight (QTOF) mass spectrometer. Samples (6 μL) were injected onto a 2.1 × 50 mm, 1.8 μm ZORBAX RRHD Eclipse Plus C18 column equipped with a UHPLC guard column (Agilent; flow rate: 0.2 mL min^−1). […] Acquired data were analysed using Agilent MassHunter Qualitative Analysis (version B.07.00).
Tris buffer, cofactor and BRD4_511–550 stock solutions were prepared using ^18OH2 (CK Isotopes) and JMJD6 was buffer exchanged into 50 mM Tris (pH 7.5) in ^18OH2. The enzyme reactions were incubated under an ambient atmosphere at room temperature for 24 h, after which the reactions were stopped by the addition of 10%v/v aqueous formic acid (20 μL) and analysed by LC–MS as described above.

number of hydroxylation products observed (+16 Da mass shifts) (full-length His6-JMJD6 [2]; initial time-course, n = 3): two
Sequence: LAELQEQLKAVHEQLAALSQPQQNKPKKKEKDKKEKKKEK [BRD4_511–550, 40-mer peptide fragment derived from human BRD4, JMJD6 substrate, prepared by SPPS]
retention on SPE cartridge [1]: efficiently retained on a C4 SPE cartridge
hydroxylation by JMJD6 (in words) (full-length His6-JMJD6 [2]; time-course, SPE-MS): efficiently hydroxylated by isolated recombinant JMJD6; also recorded: mono-hydroxylated more efficiently than BRD3_463–502 whilst showing substantially lower levels of di-hydroxylation and no tri-hydroxylation by comparison with BRD2_520–559; also recorded: multiple hydroxylations
JMJD6-catalysed hydroxylation at low O2 (full-length His6-JMJD6 [3]; [O2] < 2.5%): inhibited at low oxygen concentrations; also recorded: sensitive to low O2 concentrations
di- or higher-order hydroxylation (full-length His6-JMJD6 [3]; varied O2, 37 °C, 60 or 90 s): no evidence for di- (or higher order) hydroxylation
incorporated oxygen in 18OH2 (full-length His6-JMJD6 [4]; 16O2 atmosphere in 18OH2, JMJD6 2 μM): complete incorporation of ^16O from atmospheric O2
mass shifts / origin of incorporated oxygen under 18O2 (full-length His6-JMJD6 [4]; 18O2 atmosphere in H2O, JMJD6 2 μM): successive +18 Da shifts; also recorded: originates, at least, predominantly from ^18O2; also recorded: originate predominantly from atmospheric O2
